Tested on: patients with cGVHD
Assay: Example 1: pulmonary function (percent predicted FEV1, FVC, DLco, TLC, RV) change from baseline
Assay type: in vivo, human
Experimental: Change From Baseline in Percent Predicted Forced Expiratory Volume in 1 Second (FEV1) at Each Specified Time Points. FEV1 was the volume of air exhaled from the lungs in the first second of a forced expiration as measured by spirometer. Baseline value was defined as valid and last non-missing value obtained within 28 days prior to participant receiving first study medication. EOT visit was performed within 3 days after the participant's last dose of study drug. […] Analysis was performed on mITT population. Here, ‘number analyzed’=participants with available data for each specified category. Here, ‘0’ in the number analyzed field signifies that none of the participants were available for the analysis at the specified time points.
Change From Baseline in Percent Predicted Forced Vital Capacity (FVC) at Each Specified Time Points. FVC was the total amount of air (in liters) exhaled from the lungs during the lung function test measured by spirometer which assessed the change in lung function related to the disease status. Baseline value was defined as valid and last non-missing value obtained within 28 days prior to participant receiving first study medication. EOT visit was performed within 3 days after the participant's last dose of study drug. […] Analysis was performed on mITT population. Here, ‘number analyzed’=participants with available data for each specified category. Here, ‘0’ in the number analyzed field signifies that none of the participants were available for the analysis at the specified time points.
Change From Baseline in Percent Predicted Hemoglobin (HGB) Corrected Diffusing Capacity of Lung for Carbon Monoxide (DLco) at Each Specified Time Points. DLco is a measurement of the ability of the lungs to transfer gases from the air to the blood. Change from baseline in diffusing capacity of the lung for carbon monoxide (percent predicted hemoglobin level corrected) was reported for this measure. Baseline value was defined as valid and last non-missing value obtained within 28 days prior to participant receiving first study medication. EOT visit was performed within 3 days after the participant's last dose of study drug. […] Analysis was performed on mITT population. Here, ‘number analyzed’=participants with available data for each specified category. Here, ‘0’ in the number analyzed field signifies that none of the participants were available for the analysis at the specified time points.
Change From Baseline in Percent Predicted Total Lung Capacity (TLC) at Each Specified Time Points. TLC is the volume of air in the lungs upon the maximum effort of inspiration. Baseline value was defined as valid and last non-missing value obtained within 28 days prior to participant receiving first study medication. EOT visit was performed within 3 days after the participant's last dose of study drug. […] Analysis was performed on mITT population. Here, ‘number analyzed’=participants with available data for each specified category.

## CC(C)NC(=O)COc1cccc(-c2nc(Nc3ccc4[nH]ncc4c3)c3ccccc3n2)c1 [Belumosudil, 2-{3-[4-(1H-indazol-5-ylamino)-2-quinazolinyl]phenoxy}-N-(propan-2-yl) acetamide]
Cohort 2: 200 mg BID, Cycle 13, Day 1, n=4
  Change From Baseline in Percent Predicted Residual Volume (RV), Mean (Standard Deviation): −27.0 (35.6) percent predicted RV
Cohort 2: 200 mg BID, Cycle 14, Day 1, n=1
  Change From Baseline in Percent Predicted Residual Volume (RV), Mean (Standard Deviation): −31.0 (—) percent predicted RV
Cohort 2: 200 mg BID, Cycle 15, Day 1, n=3
  Change From Baseline in Percent Predicted Residual Volume (RV), Mean (Standard Deviation): −0.7 (18.1) percent predicted RV
Cohort 2: 200 mg BID, Cycle 16, Day 1, n=2
  Change From Baseline in Percent Predicted Residual Volume (RV), Mean (Standard Deviation): −36.5 (13.4) percent predicted RV
Cohort 2: 200 mg BID, Cycle 17, Day 1, n=3
  Change From Baseline in Percent Predicted Residual Volume (RV), Mean (Standard Deviation): −47.3 (25.1) percent predicted RV
Cohort 2: 200 mg BID, Cycle 18, Day 1, n=2
  Change From Baseline in Percent Predicted Residual Volume (RV), Mean (Standard Deviation): −42.0 (0.0) percent predicted RV
Cohort 2: 200 mg BID, Cycle 19, Day 1, n=3
  Change From Baseline in Percent Predicted Residual Volume (RV), Mean (Standard Deviation): −19.7 (18.0) percent predicted RV
Cohort 2: 200 mg BID, Cycle 20, Day 1, n=2
  Change From Baseline in Percent Predicted Residual Volume (RV), Mean (Standard Deviation): −7.5 (37.5) percent predicted RV
Cohort 2: 200 mg BID, Cycle 21, Day 1, n=1
  Change From Baseline in Percent Predicted Residual Volume (RV), Mean (Standard Deviation): −44.0 (—) percent predicted RV
Cohort 2: 200 mg BID, Cycle 22, Day 1, n=2
  Change From Baseline in Percent Predicted Residual Volume (RV), Mean (Standard Deviation): −33.0 (19.8) percent predicted RV
Cohort 2: 200 mg BID, Cycle 23, Day 1, n=1
  Change From Baseline in Percent Predicted Residual Volume (RV), Mean (Standard Deviation): −72.0 (—) percent predicted RV
Cohort 2: 200 mg BID, Cycle 24, Day 1, n=1
  Change From Baseline in Percent Predicted Residual Volume (RV), Mean (Standard Deviation): −17.0 (—) percent predicted RV
Cohort 2: 200 mg BID, Cycle 25, Day 1, n=2
  Change From Baseline in Percent Predicted Residual Volume (RV), Mean (Standard Deviation): −34.0 (31.1) percent predicted RV
Cohort 2: 200 mg BID, Cycle 27, Day 1, n=2
  Change From Baseline in Percent Predicted Residual Volume (RV), Mean (Standard Deviation): −39.5 (20.5) percent predicted RV
Cohort 2: 200 mg BID, Cycle 29, Day 1, n=1
  Change From Baseline in Percent Predicted Residual Volume (RV), Mean (Standard Deviation): −13.0 (—) percent predicted RV
Cohort 2: 200 mg BID, Cycle 37, Day 1, n=1
  Change From Baseline in Percent Predicted Residual Volume (RV), Mean (Standard Deviation): −70.0 (—) percent predicted RV
Cohort 2: 200 mg BID, Cycle 39, Day 1, n=2
  Change From Baseline in Percent Predicted Residual Volume (RV), Mean (Standard Deviation): −43.0 (42.4) percent predicted RV
Cohort 2: 200 mg BID, Cycle 43, Day 1, n=1
  Change From Baseline in Percent Predicted Residual Volume (RV), Mean (Standard Deviation): −26.0 (—) percent predicted RV
Cohort 2: 200 mg BID, EOT, n=8
  Change From Baseline in Percent Predicted Residual Volume (RV), Mean (Standard Deviation): 10.6 (34.9) percent predicted RV
Cohort 3: 400 mg QD, Cycle 2, Day 1, n=4
  Change From Baseline in Percent Predicted Residual Volume (RV), Mean (Standard Deviation): −18.0 (30.1) percent predicted RV
Cohort 3: 400 mg QD, Cycle 3, Day 1, n=12
  Change From Baseline in Percent Predicted Residual Volume (RV), Mean (Standard Deviation): 9.0 (34.4) percent predicted RV
Cohort 3: 400 mg QD, Cycle 4, Day 1, n=6
  Change From Baseline in Percent Predicted Residual Volume (RV), Mean (Standard Deviation): 17.8 (29.0) percent predicted RV
Cohort 3: 400 mg QD, Cycle 5, Day 1, n=10
  Change From Baseline in Percent Predicted Residual Volume (RV), Mean (Standard Deviation): −3.7 (29.8) percent predicted RV
Cohort 3: 400 mg QD, Cycle 6, Day 1, n=7
  Change From Baseline in Percent Predicted Residual Volume (RV), Mean (Standard Deviation): −10.9 (37.5) percent predicted RV
Cohort 3: 400 mg QD, Cycle 7, Day 1, n=12
  Change From Baseline in Percent Predicted Residual Volume (RV), Mean (Standard Deviation): −7.5 (33.0) percent predicted RV
Cohort 3: 400 mg QD, Cycle 8, Day 1, n=6
  Change From Baseline in Percent Predicted Residual Volume (RV), Mean (Standard Deviation): 2.5 (39.7) percent predicted RV
Cohort 3: 400 mg QD, Cycle 9, Day 1, n=10
  Change From Baseline in Percent Predicted Residual Volume (RV), Mean (Standard Deviation): 0.1 (35.6) percent predicted RV
Cohort 3: 400 mg QD, Cycle 10, Day 1, n=5
  Change From Baseline in Percent Predicted Residual Volume (RV), Mean (Standard Deviation): 1.4 (38.2) percent predicted RV
Cohort 3: 400 mg QD, Cycle 11, Day 1, n=8
  Change From Baseline in Percent Predicted Residual Volume (RV), Mean (Standard Deviation): 5.4 (38.0) percent predicted RV
Cohort 3: 400 mg QD, Cycle 12, Day 1, n=6
  Change From Baseline in Percent Predicted Residual Volume (RV), Mean (Standard Deviation): −22.2 (49.9) percent predicted RV
Cohort 3: 400 mg QD, Cycle 13, Day 1, n=8
  Change From Baseline in Percent Predicted Residual Volume (RV), Mean (Standard Deviation): 0.3 (32.6) percent predicted RV
Cohort 3: 400 mg QD, Cycle 14, Day 1, n=6
  Change From Baseline in Percent Predicted Residual Volume (RV), Mean (Standard Deviation): −6.5 (36.3) percent predicted RV
Cohort 3: 400 mg QD, Cycle 15, Day 1, n=7
  Change From Baseline in Percent Predicted Residual Volume (RV), Mean (Standard Deviation): −16.7 (22.3) percent predicted RV
Cohort 3: 400 mg QD, Cycle 16, Day 1, n=4
  Change From Baseline in Percent Predicted Residual Volume (RV), Mean (Standard Deviation): −27.5 (31.9) percent predicted RV
Cohort 3: 400 mg QD, Cycle 17, Day 1, n=7
  Change From Baseline in Percent Predicted Residual Volume (RV), Mean (Standard Deviation): −39.1 (26.2) percent predicted RV
Cohort 3: 400 mg QD, Cycle 18, Day 1, n=3
  Change From Baseline in Percent Predicted Residual Volume (RV), Mean (Standard Deviation): −7.3 (33.7) percent predicted RV
Cohort 3: 400 mg QD, Cycle 19, Day 1, n=4
  Change From Baseline in Percent Predicted Residual Volume (RV), Mean (Standard Deviation): −23.5 (18.7) percent predicted RV
Cohort 3: 400 mg QD, Cycle 20, Day 1, n=3
  Change From Baseline in Percent Predicted Residual Volume (RV), Mean (Standard Deviation): −22.0 (44.3) percent predicted RV
Cohort 3: 400 mg QD, Cycle 21, Day 1, n=5
  Change From Baseline in Percent Predicted Residual Volume (RV), Mean (Standard Deviation): −30.2 (51.2) percent predicted RV
Cohort 3: 400 mg QD, Cycle 22, Day 1, n=2
  Change From Baseline in Percent Predicted Residual Volume (RV), Mean (Standard Deviation): −41.0 (46.7) percent predicted RV
Cohort 3: 400 mg QD, Cycle 23, Day 1, n=4
  Change From Baseline in Percent Predicted Residual Volume (RV), Mean (Standard Deviation): 1.5 (44.8) percent predicted RV
Cohort 3: 400 mg QD, Cycle 24, Day 1, n=1
  Change From Baseline in Percent Predicted Residual Volume (RV), Mean (Standard Deviation): −78.0 (—) percent predicted RV
Cohort 3: 400 mg QD, Cycle 25, Day 1, n=3
  Change From Baseline in Percent Predicted Residual Volume (RV), Mean (Standard Deviation): −23.3 (56.0) percent predicted RV
Cohort 3: 400 mg QD, Cycle 27, Day 1, n=2
  Change From Baseline in Percent Predicted Residual Volume (RV), Mean (Standard Deviation): −41.0 (28.3) percent predicted RV
Cohort 3: 400 mg QD, Cycle 29, Day 1, n=2
  Change From Baseline in Percent Predicted Residual Volume (RV), Mean (Standard Deviation): 17.5 (40.3) percent predicted RV
Cohort 3: 400 mg QD, Cycle 39, Day 1, n=1
  Change From Baseline in Percent Predicted Residual Volume (RV), Mean (Standard Deviation): 81.0 (—) percent predicted RV
Cohort 3: 400 mg QD, Cycle 43, Day 1, n=1
  Change From Baseline in Percent Predicted Residual Volume (RV), Mean (Standard Deviation): 75.0 (—) percent predicted RV
Cohort 3: 400 mg QD, Cycle 47, Day 1, n=1
  Change From Baseline in Percent Predicted Residual Volume (RV), Mean (Standard Deviation): 87.0 (—) percent predicted RV
Cohort 3: 400 mg QD, Cycle 49, Day 1, n=1
  Change From Baseline in Percent Predicted Residual Volume (RV), Mean (Standard Deviation): −5.0 (—) percent predicted RV
Cohort 3: 400 mg QD, EOT, n=8
  Change From Baseline in Percent Predicted Residual Volume (RV), Mean (Standard Deviation): −18.5 (32.6) percent predicted RV

— patent publication US20250255867A1 (Kadmon Corporation, LLC, priority 2022, published 2025)
